# From BindingDB's records for doi:10.1016/s0968-0896(98)00004-2 (Sankyo, 1998)
# Biological target: T1, Dimer of Gag-Pol polyprotein [489-587] (Human immunodeficiency virus 1, UniProt P12497)
# T1 construct: 489-587
# Experiment: Protease Inhibition Assay
# Description: The inhibitory activities of the compounds toward HIV-1 PR were determined by sodium dodecyl sulfate-polyacrylamide gel electrophoresis (SDS-PAGE) assay. The IC50 values of active compounds were determined using the partially purified protease and the synthetic substrate Ac-Ser-Gln-AsnTyr-Pro-Ile-Val-NH2.
compound,measurement,value
"CC(C)(C)NC(=O)[C@@H]1C[C@H](Cl)CN1C(=O)[C@@H](O)[C@H](Cc1ccccc1)NC(=O)OC1CCSC1 (stereo partly drawn) [thiolan-3-yl N-[(2S,3S)-4-[(2S,4S)-2-(tert-butylcarbamoyl)-4-chloropyrrolidin-1-yl]-3-hydroxy-4-oxo-1-phenylbutan-2-yl]carbamate]",IC50,7.7 nM
